Experimental data published in paper PMC6753678, “Fueling Open Innovation for Malaria Transmission-Blocking Drugs: Hundreds of Molecules Targeting Early Parasite Mosquito Stages” (Frontiers in Microbiology, 2019).
Read-outs that look alike come from different tables or passages of the source.

How the values were obtained:
[1] = system: 3D7-strain P. falciparum asexual parasites; assay: P. falciparum asexual growth inhibition assay (Pf GIA); assay type: cell-based, Plasmodium falciparum; settings: dose response confirmation; read-out: Pf asexual growth inhibition assays IC50
In short: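 0.25% parasitemia, 2% Hct, RPMI/HEPES/hypoxanthine/5% Albumax; compound dose response, 72 h, 37°C, 5% CO2, 5% O2, 90% N2. Freeze-thaw, then LDH assay, A650. % inhibition vs chloroquine (50 μM)/DMSO, mean of 3 independent runs.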

[2] = system: P. berghei ookinete development; settings: for % inhibition, Replicate A / % inhibition, Replicate B: primary screen at 1 μM
[3] = system: HepG2 cells; assay: HepG2 cytotoxicity assay; settings: for IC50: read-out: HepG2 cytotoxicity assay IC50, dose response confirmation; for Pb ODA (this manuscript) HepG2 cytoxicity: HepG2 cytotoxicity listed with the Pb ODA data set (this manuscript)
In short: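 HepG2 cells, 2,500 per well in MEM with 10% FBS and 1% NEAA, exposed to compounds for 48 h at 37°C, 5% CO2. Viability read by fluorescence; percent inhibition relative to 50 μM doxorubicin and DMSO controls.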

[4] = read-out: Pb ODA IC50, this manuscript
[5] = read-out: Pb Ookinete development assay IC50, dose response confirmation
[6] = HepG2 values of the three screens unified
[7] = read-out: Pb ODA (this manuscript) IC50, P. berghei ookinete development assay, this manuscript
[8] = unified HepG2 value across the three screens

Nc1nc(N)c2c(ccc3c2ccn3Cc2ccc3c(c2)OCO3)n1 [TCMDC-137808]
IC50 [1]: < 0.2 nM
Is compound selective in assay? Pb ODA active? ([2]; 1: YES, 0: NO): 0 (0: NO)
% inhibition, Replicate A [2]: 57.79%
% inhibition, Replicate B [2]: 75.32%
IC50 [2, 4]: 450 nM
IC50 [2, 5]: 447 nM
HepG2 cytoxicity (Pb ODA, this manuscript) [3]: 0.0324 µM
Unified cytotox [3, 6]: 0.0324 µM
IC50 [3]: 32.4 nM

COc1cccc(Cn2ccc3c4c(N)nc(N)nc4ccc32)c1 [TCMDC-137811]
IC50 [1]: < 0.2 nM
Is compound selective in assay? Pb ODA active? ([2]; 1: YES, 0: NO): 0 (0: NO)
% inhibition, Replicate A [2]: 65.46%
% inhibition, Replicate B [2]: 68.96%
IC50 [2, 4]: 1560 nM
IC50 [2, 5]: 1560 nM
HepG2 cytoxicity (Pb ODA, this manuscript) [3]: 0.0129 µM
Unified cytotox [3, 6]: 0.0129 µM
IC50 [3]: 12.9 nM

Cc1ccccc1Cn1ccc2c3c(N)nc(N)nc3ccc21 [TCMDC-137812]
IC50 [1]: < 0.3 nM
Is compound selective in assay? Pb ODA active? ([2]; 1: YES, 0: NO): 0 (0: NO)
% inhibition, Replicate A [2]: 41.40%
% inhibition, Replicate B [2]: 62.61%
IC50 [2, 4]: 430 nM
IC50 [2, 5]: 429 nM
HepG2 cytoxicity (Pb ODA, this manuscript) [3]: 0.00828 µM
Unified cytotox [3, 6]: 0.00828 µM
IC50 [3]: 8.28 nM

CCN(C)C(=O)n1ncc2c3c(N)nc(N)nc3ccc21 [TCMDC-137828]
IC50 [1]: 86 nM
Is compound selective in assay? Pb ODA active? [2]: 0 (key: 1: YES; 0: NO)
% inhibition, Replicate A [2]: 30.59%
% inhibition, Replicate B [2]: 54.76%
IC50 [2, 7]: 2560 nM
IC50 [2, 5]: 2560 nM
Pb ODA (this manuscript) HepG2 cytoxicity [3]: 0.22 µM
IC50 [3]: 220 nM

CCC(C)(C)c1ccc2nc(N)nc(N)c2c1C [TCMDC-137829]
IC50 [1]: 1.07 nM
Is compound selective in assay? Pb ODA active? ([2]; 1: YES, 0: NO): 0 (0: NO)
% inhibition, Replicate A [2]: 40.64%
% inhibition, Replicate B [2]: 76.04%
IC50 [2, 4]: 3100 nM
IC50 [2, 5]: 3100 nM
IC50 [3]: 1.7 nM
Unified cytotox [3, 8]: 0.0017 µM

CCc1cc2c3c(N)nc(N)nc3ccc2n1CC [TCMDC-137851]
IC50 [1]: 2.53 nM
Is compound selective in assay? Pb ODA active? ([2]; 1: YES, 0: NO): 0 (0: NO)
% inhibition, Replicate A [2]: 53.59%
% inhibition, Replicate B [2]: 40.48%
IC50 [2, 4]: 990 nM
IC50 [2, 5]: 986 nM
HepG2 cytoxicity (Pb ODA, this manuscript) [3]: 0.0224 µM
Unified cytotox [3, 6]: 0.0224 µM
IC50 [3]: 22.4 nM

Cl.Nc1nc(N)c2c(ccc3c2cnn3S(=O)(=O)N2CCCC2)n1 [TCMDC-137852]
IC50 [1]: 3.8 nM
Is compound selective in assay? Pb ODA active? [2]: 0 (key: 1: YES; 0: NO)
% inhibition, Replicate A [2]: 40.87%
% inhibition, Replicate B [2]: 51.00%
IC50 [2, 5]: 1530 nM
Pb ODA (this manuscript) HepG2 cytoxicity [3]: 0.00412 µM
IC50 [3]: 4.12 nM

Cl.Nc1nc(N)c2c(ccc3nn(S(=O)(=O)N4CCCC4)cc32)n1 [TCMDC-137854]
IC50 [1]: 144 nM
Is compound selective in assay? Pb ODA active? [2]: 0 (key: 1: YES; 0: NO)
% inhibition, Replicate A [2]: 55.32%
% inhibition, Replicate B [2]: 26.78%
IC50 [2, 7]: 5300 nM
IC50 [2, 5]: 5300 nM
Pb ODA (this manuscript) HepG2 cytoxicity [3]: 0.12 µM
IC50 [3]: 120 nM

CCn1c(C(C)C)cc2c3c(N)nc(N)nc3ccc21 [TCMDC-137856]
IC50 [1]: 6.37 nM
Is compound selective in assay? Pb ODA active? ([2]; 1: YES, 0: NO): 0 (0: NO)
% inhibition, Replicate A [2]: 104.91%
% inhibition, Replicate B [2]: 74.96%
IC50 [2, 4]: 590 nM
IC50 [2, 5]: 588 nM
HepG2 cytoxicity (Pb ODA, this manuscript) [3]: 0.00302 µM
Unified cytotox [3, 6]: 0.00302 µM
IC50 [3]: 3.02 nM

Cc1cc2c3c(N)nc(N)nc3ccc2n1C(C)C [TCMDC-137864]
IC50 [1]: 4 nM
Is compound selective in assay? Pb ODA active? ([2]; 1: YES, 0: NO): 0 (0: NO)
% inhibition, Replicate A [2]: 66.13%
% inhibition, Replicate B [2]: 75.37%
IC50 [2, 4]: 2320 nM
IC50 [2, 5]: 2320 nM
HepG2 cytoxicity (Pb ODA, this manuscript) [3]: 0.0331 µM
Unified cytotox [3, 6]: 0.0331 µM
IC50 [3]: 33.1 nM

Nc1nc(N)c2c(Cl)c(N3CCOCC3)ccc2n1 [TCMDC-137868]
IC50 [1]: 72 nM
Is compound selective in assay? Pb ODA active? ([2]; 1: YES, 0: NO): 0 (0: NO)
% inhibition, Replicate A [2]: 53.12%
% inhibition, Replicate B [2]: 26.39%
IC50 [2, 4]: 3800 nM
IC50 [2, 5]: 3800 nM
IC50 [3]: 8.61 nM
Unified cytotox [3, 8]: 0.00861 µM

CCC(C(C)C)n1ccc2c3c(N)nc(N)nc3ccc21 (centres unmarked) [TCMDC-137872]
IC50 [1]: < 0.2 nM
Is compound selective in assay? Pb ODA active? ([2]; 1: YES, 0: NO): 0 (0: NO)
% inhibition, Replicate A [2]: 63.79%
% inhibition, Replicate B [2]: 69.72%
IC50 [2, 4]: 470 nM
IC50 [2, 5]: 474 nM
HepG2 cytoxicity (Pb ODA, this manuscript) [3]: 0.0017 µM
Unified cytotox [3, 6]: 0.0017 µM
IC50 [3]: 1.7 nM

Cl.OCC(CO)(CO)NCc1ccc2c3c(cccc13)-c1ccccc1-2 [TCMDC-137877]
IC50 [1]: 1970 nM
Is compound selective in assay? Pb ODA active? ([2]; 1: YES, 0: NO): 1 (1: YES)
% inhibition, Replicate A [2]: 56.61%
% inhibition, Replicate B [2]: 22.47%
IC50 [2, 4]: 560 nM
IC50 [2, 5]: 564 nM
IC50 [3]: 9550 nM
Unified cytotox [3, 8]: 9.55 µM

CCCC(CCC)n1ccc2c3c(N)nc(N)nc3ccc21.Cl [TCMDC-137949]
IC50 [1]: < 0.2 nM
Is compound selective in assay? Pb ODA active? ([2]; 1: YES, 0: NO): 0 (0: NO)
% inhibition, Replicate A [2]: 42.83%
% inhibition, Replicate B [2]: 73.31%
IC50 [2, 4]: 2780 nM
IC50 [2, 5]: 2780 nM
HepG2 cytoxicity (Pb ODA, this manuscript) [3]: 0.0017 µM
Unified cytotox [3, 6]: 0.0017 µM
IC50 [3]: 1.7 nM

Nc1nc(N)c2c(ccc3c2ccn3CCCCO)n1 [TCMDC-137959]
IC50 [1]: 61 nM
Is compound selective in assay? Pb ODA active? ([2]; 1: YES, 0: NO): 0 (0: NO)
% inhibition, Replicate A [2]: 70.70%
% inhibition, Replicate B [2]: 40.44%
IC50 [2, 4]: 3090 nM
IC50 [2, 5]: 3090 nM
HepG2 cytoxicity (Pb ODA, this manuscript) [3]: 0.0759 µM
Unified cytotox [3, 6]: 0.0759 µM
IC50 [3]: 75.9 nM

CCCC(C)n1ccc2c3c(N)nc(N)nc3ccc21 (centres unmarked) [TCMDC-137964]
IC50 [1]: 35 nM
Is compound selective in assay? Pb ODA active? ([2]; 1: YES, 0: NO): 0 (0: NO)
% inhibition, Replicate A [2]: 50.53%
% inhibition, Replicate B [2]: 51.77%
IC50 [2, 4]: 4290 nM
IC50 [2, 5]: 4290 nM
HepG2 cytoxicity (Pb ODA, this manuscript) [3]: 0.03 µM
Unified cytotox [3, 6]: 0.03 µM
IC50 [3]: 30 nM

CC(C)Cn1ncc2c3c(N)nc(N)nc3ccc21 [TCMDC-137970]
IC50 [1]: 80 nM
Is compound selective in assay? Pb ODA active? [2]: 0 (key: 1: YES; 0: NO)
% inhibition, Replicate A [2]: 76.14%
% inhibition, Replicate B [2]: 41.76%
IC50 [2, 7]: 1750 nM
IC50 [2, 5]: 1750 nM
Pb ODA (this manuscript) HepG2 cytoxicity [3]: 0.11 µM
IC50 [3]: 110 nM

CN(C)S(=O)(=O)n1ccc2c3c(N)nc(N)nc3ccc21 [TCMDC-137973]
IC50 [1]: 6 nM
Is compound selective in assay? Pb ODA active? [2]: 0 (key: 1: YES; 0: NO)
% inhibition, Replicate A [2]: 72.90%
% inhibition, Replicate B [2]: 52.14%
IC50 [2, 7]: 1270 nM
IC50 [2, 5]: 1270 nM
Pb ODA (this manuscript) HepG2 cytoxicity [3]: 0.0017 µM
IC50 [3]: 1.7 nM

Nc1nc(N)c2c(ccc3c2ccn3Cc2ccccn2)n1 [TCMDC-137980]
IC50 [1]: 1.15 nM
Is compound selective in assay? Pb ODA active? ([2]; 1: YES, 0: NO): 0 (0: NO)
% inhibition, Replicate A [2]: 50.19%
% inhibition, Replicate B [2]: 73.34%
IC50 [2, 5]: 2430 nM
HepG2 cytoxicity (Pb ODA, this manuscript) [3]: 0.00767 µM
Unified cytotox [3, 6]: 0.00767 µM
IC50 [3]: 7.67 nM
